We go through two compounds from US12571019B2, “Nisin-permeabilized microbial cell catalysts” (DANMARKS TEKNISKE UNIVERSITET, priority 2020, dated 2026).

For assay [1], the system named is S. thermophilus CS1980. In words: Lactose hydrolysis in POM buffer by permeabilized S. thermophilus CS1980 whole-cell catalyst. Type of assay: cell-based, Streptococcus thermophilus. To be noted: for stability of the whole-cell catalyst: permeabilized 10 minutes at 28° C. (45% (v/v) ethanol or 2.5 μg/ml nisin), hydrolysis 50° C. Here is the method:
S. thermophilus CS1980 was grown in 500-ml Erlenmeyer flasks containing 200 ml of medium at 37° C. for 16 h without agitation. As inoculum, 2 ml of a 24 hour, outgrown culture was used. Cells were collected by centrifugation at 10,000 g for 10 min at 4° C., washed once with sterile POM buffer (50 mM K2HPO4/KH2PO4, 1 mM MgCl2, pH 7.4) and finally re-suspended in POM buffer to an optical density (600 nm) of 0.33, corresponding to approximately 100 mg/l dry cell weight. The cell suspension was kept on ice until use. For permeabilization, cell suspensions were dispensed into sterile tubes (1 ml per tube) and centrifuged in a microcentrifuge at top speed for 5 min at 4° C.
Samples were withdrawn at different time points, and conversion of lactose (formation of glucose and galactose) was determined by HPLC analysis.
The concentrations of sugars (carbohydrate monomers and dimers) were determined using an Ultimate 3000 high-pressure liquid chromatography system (Dionex, Sunnyvale, CA) equipped with an Aminex HPX-87H column (Bio-Rad, Hercules, CA) and a Shodex RI-101 detector (Showa Denko KK, Tokyo, Japan). The column oven temperature was set to 30° C., and the mobile phase consisted of 5 mM H2SO4 with a flowrate of 0.5 ml/min.
Hydrolysis took place at 50° C.
Hydrolysis of lactose in POM buffer (50 g/l lactose) at 50° C. was carried out at a cell concentration of approximately 100 mg/l.
Hydrolysis of lactose (50 g/1) was carried out in POM buffer at 50° C.

The test system of assay [2] is S. thermophilus. To be noted: Somkuti et al., 1998; cited from earlier work.
Assay [3] has as its system S. thermophilus ST057-1. In words: Hydrolysis of lactose in milk by nisin-permeabilized S. thermophilus ST057-1. In kind it is cell-based, Streptococcus thermophilus. The method, then: Nisin-treated S. thermophilus ST057-1 was applied in hydrolysis of lactose in milk, at cell concentration of approximately 100 mg/l or 1 g/l. […] The starting concentration of lactose in the milk used was 52 g/l. Hydrolysis took place at 50° C.
Hydrolysis of lactose in milk (52 g/l lactose) using nisin-treated cells was carried out at a cell concentration of approximately 1 g/l. Hydrolysis took place at 50° C.

In assay [4] the test system is L. lactis strain MG1363 ΔldhB ΔldhX Δpta ΔadhE ΔbutBA ΔaldB (RD04). In words: Alpha-acetolactate synthase activity of nisin-permeabilized L. lactis RD04 (pyruvate to alpha-acetolactate, HPLC). In kind it is cell-based, Lactococcus lactis. The note with it: 100 μg/ml nisin, 15 min 37° C.; 200 mM sodium pyruvate. Here is the method: A modified L. lactis strain MG1363 lacking alpha-acetolactate decarboxylase activities was used in the present experiment. More specifically, the strain RD04 was L. lactis strain MG1363 ΔldhB ΔldhX Δpta ΔadhE ΔbutBA ΔaldB, while harboring an expression vector for overexpressing native alpha-acetolactate synthase (Als).
Alpha-acetolactate synthase activity was determined by investigating the conversion rate of pyruvate to alpha-acetolactate, using HPLC measurements of alpha-acetolactate formation.

Assay [5] concerns S. thermophilus strains from starter culture ST057. In words: Lactose hydrolysis in POM buffer by nisin-permeabilized S. thermophilus strains from starter culture ST057. In kind it is cell-based, Streptococcus thermophilus. The method, then: Streptococcus thermophilus (S. thermophilus) strain CS1980 was isolated from a Danish yoghurt (same as used in example 1). Additional S. thermophilus strains were isolated from starter cultures kindly provided by Sacco Srl. Italy (ST057, ST022).
Hydrolysis was performed at 50° C.

Regarding `CCO` [ethanol], in assay [1], the “stability of the whole-cell catalyst” value is reported as “compromised the stability of the whole-cell catalyst”. For the same compound, in assay [2], the “permeabilizing agent effect on measurable beta-galactosidase activity” value is recorded as “efficient as a permeabilizing agent”.
For nisin A, the “time to reach 80% hydrolysis” value in assay [3] (milk (52 g/l lactose), 100 mg/l whole-cell catalyst, 50° C.) was “more than 12 hours”; in assay [5] (POM buffer, 100 mg/l whole-cell catalyst, 50° C.), ≤ 4 h. In addition, the “conversion rate on increasing the whole-cell catalyst concentration” value in assay [3] (milk, 1 g/l vs 100 mg/l cells, 50° C.) is given as “significantly increased”. Further, the “lactose conversion in milk at different permeabilization temperature” value in assay [3] (permeabilization 28° C. vs 37° C., 1 g/l cells, hydrolysis 50° C.) was “performed equally well”. The lactose hydrolyzed in assay [1] (2.5 μg/ml nisin 10 min, 100 mg/l cells, 50 g/l lactose in POM buffer, hydrolysis at 50° C., within 24 hours) is on record as 95%. Moreover, the “lactose conversion compared to control and ethanol-permeabilized cells” value in assay [1] (2.5 μg/ml nisin, 10 minutes 28° C., 50 g/l lactose POM buffer, 50° C., 100 mg/l cells) is recorded as “perform better than the control as well as the ethanol-permeabilized cells”. Further, in assay [1] (30 minutes vs 10 minutes permeabilization), the “effect of prolonged nisin treatment” value is recorded as “does not give better results”. Besides, the “efficiency of permeabilization at different permeabilization temperatures” value in assay [1] (permeabilization at 28° C. and 37° C., 2.5 μg/ml nisin 10 min) is “equally efficient”; in assay [1] (permeabilization temperatures 28-50° C., 2.5 μg/ml nisin), “equally efficient”. The “cell stability after permeabilization” value in assay [1] (permeabilization at 55° C., 2.5 μg/ml nisin) is on record as “seemed to be compromised”. The “stability of the whole-cell catalyst” value in assay [1] is “higher stability”. Besides, the “conversion of pyruvate to alpha-acetolactate compared to non-permeabilized cells” value in assay [4] is given as “performed much better than non-permeabilized cells”. Besides, the “conversion of the lactose” value in assay [5] (two strains from starter culture ST057, 2.5 μg/ml nisin 10 min 28° C., hydrolysis 50° C., in less than half of the time of the other strains) was > 90%.
